Values quoted from earlier work, collected in US20190279737A1, “METHOD OF DISCOVERING NEW DRUG CANDIDATE TARGETING DISORDER-TO-ORDER TRANSITION REGION AND APPARATUS FOR DISCOVERING NEW DRUG CANDIDATE” (INDUSTRY-UNIVERSITY COOPERATION FOUNDATION HANYANG …, priority 2016, published 2019).

Biological target: Myc (Homo sapiens, UniProt P01106)
Conditions: Follis et al. 2008

Sequence of Myc (P01106 16-454, species assumed): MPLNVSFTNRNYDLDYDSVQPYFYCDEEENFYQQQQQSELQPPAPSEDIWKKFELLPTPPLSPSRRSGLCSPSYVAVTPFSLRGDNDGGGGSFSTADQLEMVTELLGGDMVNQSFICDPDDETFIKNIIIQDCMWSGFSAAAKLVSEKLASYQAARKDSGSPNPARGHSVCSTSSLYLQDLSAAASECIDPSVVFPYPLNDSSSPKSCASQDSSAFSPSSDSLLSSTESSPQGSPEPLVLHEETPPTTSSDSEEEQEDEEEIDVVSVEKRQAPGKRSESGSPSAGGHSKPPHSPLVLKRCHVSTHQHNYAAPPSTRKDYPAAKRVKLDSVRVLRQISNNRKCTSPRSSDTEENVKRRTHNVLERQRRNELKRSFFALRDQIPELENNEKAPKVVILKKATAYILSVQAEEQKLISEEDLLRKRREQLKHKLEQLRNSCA

SMILES: CCc1ccc(/C=C2/SC(=S)NC2=O)cc1 [10058-F4]
- region of Myc bound: specifically binds to a 402-412 region of Myc
